The subject of one assay is guinea pig ileum. Briefly: antispasmodic activity against contractions of guinea pig ileum induced by histamine and acetylcholine. The note with it: Cavia porcellus. The protocol: The antispasmodic activity of the products according to the invention was tested against contractions of guinea pig ileum, such as induced by histamine and acetylcholine. These tests allow to reveal an antihistaminic activity, an anticholinergic activity or a musculotropic antispasmodic activity. The response to the contracting agent (submaximum concentration)was repeated every 5 minutes before and after injection of increasing doses of the tested products (10^-8 to 10^-5 M). The various doses were added at intervals of 20 minutes or of the time necessary to the development of the maximum effect.
The percentage of inhibition under the influence of tested products was calculated and the theoretical concentration ensuring 50% inhibition was graphically determined for each experience. These values were expressed as -log IC50 (M). The standard value for papaverine was 4.50, namely an effective concentration of 30 μM.

For assay [1], the system named is epididymal fat of the rat. Briefly: effect on in vitro induced lipolysis in epididymal fat of the rat. The following applies: in words. The method, then: The effect on the in vitro induced lipolysis in the epididymal fat of the rat was measured by colorimetry of fatty acids liberated during the tissue incubation under the experimental conditions such as described hereinafter.
Male Sprague-Dawley rats weighing about 250 gr were sacrified by cervical dislocation after a fasting period of 18 hours. The quickly taken-off epididymal fat was placed in a Krebs-Ringer phosphate buffer at pH 7.4, containing 1% albumin.
The tissue was cut into fragments of ±20 mgr, which were dried on filter paper and homogeneously distributed in groups of ±150 mgr weighed with precision. Each group was pre-incubated (15 minutes, 37° C., stirring) in 5 ml of Krebs-Ringer phosphate buffer (pH 7.4) containing 7% of bovine albumin and the product to be tested.
After pre-incubation, 1 ml of the medium is taken off for determining the amount of basic lipolysis. The induction agent in solution in 0.1 ml of phosphate buffer is then added to 4 ml of the remaining medium and after incubation of 90 minutes under the same conditions, liberated fatty acids are titrated in 1 ml of medium according to a variant of the colorimetric method of W. G. Duncombe (Biochem. J., 83, 6P, 1962; Biochem. J., 88, 7-10, 1963; Clin. Chem. Acta, 9, 122-125, 1964).

In assay [2] the test system is femoral arterial circulation. Briefly: peripheral vasodilator activity on anaesthetized dog, femoral arterial perfusion pressure. The class given is in vivo. The following applies: 30 μg/kg injected in femoral perfusion (some also at other doses); in words. The protocol:
The peripheral vasodilator activity of the products according to the invention was measured on anaesthetized dog at the level of the femoral arterial circulation. To this end, the femoral artery the collaterals of which were ligaturated was perfused with a constant flow rate of blood taken from aorta. Thus the perfusion pressure measured at the level of the femoral artery, varied as a function of the resistance of perfused area. The tested products and the corresponding solvents were directly injected in the system at the dose of 30 μg/kg. The blood circulation rate being maintained constant, a vasodilation was thus measured by a decrease of the perfusion pressure. The latter is rated in comparison with the action of papaverine considered as standard and injected once per group of 4 products.
When being of interest, the products were tested at other doses under the same conditions. The vasodilation activity was rated as follows:
+: 1/3 of the papaverine activity
++: 2/3 of the papaverine activity
+++: activity equal to that of papaverine (i.e. 30 to 40 mm Hg)
++++: activity higher than that of papaverine.

Assay [3] concerns human platelet rich plasma (PRP). Kind of assay: blood platelet aggregation (Born method) in human platelet rich plasma. The note with it: 24 μl of 2×10^-2 M solution added to 300 μl PRP; induced by thrombofax or collagen; in words. The class given is cell-based. The protocol: The blood platelet aggregation was studied according to the Born Method (J. Physiol., 168, 178, 1963). Nine volumes of human venous blood were taken off and anticoagulated with one volume of a trisodium citrate solution (0.129 M). The blood was centrifuged at 200 g for 10 minutes (22° C.) for preparing the platelet rich plasma (PRP). Methanol or acetone was used in order to obtain 2×10^-2 M solutions of the various involved products, 24 μl of each product were added to 300 μl of PRP. For controls, 24 μl of the various hereinabove mentioned solvents were used. The products were pre-incubated in the presence of PRP for 4 minutes at 37° C. under continuous stirring (1100 rpm). After this incubation period, the platelet aggregation was induced by addition of 100 μl of thrombofax or collagen. The aggregation phenomenon was quantified by graphical determination of the aggregation amplitude (A).
The inhibition percentage of the agglutination amplitude was calculated as follows:
A (% inhibition): 100-(Ax /Ao)×100
Ax : value of aggregation amplitude in the presence of examined products
Ao : value of aggregation amplitude for controls

For assay [4], the system named is spontaneously hypertensive rats. Kind of assay: antihypertensive activity, oral administration to non-anesthetized spontaneously hypertensive rats, systolic arterial pressure (plethysmographic). The class given is in vivo, rat. The note with it: 60 mgr/kg oral (some also at other doses); in words. The protocol: Their antihypertensive activity was tested by oral administration to non-anesthetized, spontaneously hypertensive rats, on which the systolic arterial pressure is measured at the level of the median coccygeal artery by means of a plethysmographic method (J. Roba, G. Lambelin, A. F. De Schaepdryver, Arch. int. Pharmacodyn., 200, 182, 1972). The arterial pressure was measured every 30 minutes from two hours before to three hours after oral administration of 60 mgr/kg of the tested products or of a placebo (1% tragacanth gum mucilage). When being of interest, the products were tested at other doses under similar conditions. Only rats having a systolic pressure of 180 to 220 mm Hg were used. Two rats were used for each product. The treatments were made without the knowledge of the person making the measures. The antihypertensive effects were rated as follows:
+: reduction of 10 to 20 mm Hg
++: reduction of 20 to 30 mm Hg
+++: reduction of 30 to 50 mm Hg
++++: reduction >50 mm Hg

[5] abbreviates: 50% inhibition of contractions, converted from -log IC50, read-out: effective concentration / concentration corresponding to -log IC50 (converted).
[6] abbreviates: contractions induced by histamine and acetylcholine, 10^-8 to 10^-5 M, read-out: -log IC50 (M), antispasmodic activity (converted).
[7] abbreviates: read-out: -log IC50 (M), antispasmodic activity (converted).
The mark [8] stands for this setting: read-out: effective concentration / concentration corresponding to -log IC50 (converted).

Structures are written as SMILES. Where two headings read alike, the source gives them in different places. Bounds are passed on as bounds.

As for `CCCCCCCCNC(C)C(OC(=O)C(C)(C)C)c1ccc(SC(C)C)cc1` (stereo not shown) [Compound 1], the IC50 in the assay on guinea pig ileum (setting [5]) and in the assay on guinea pig ileum (setting [6]) was under 1e-06 M in each case. For the same molecule, in assay [1], the “effect on induced lipolysis” value was “active”.

For the molecule `CCCCCCCCNC(C)C(OC(C)=O)c1ccc(SC(C)C)cc1.Cl` (stereo not shown) [Compound 3, 1-Acetyloxy-1-(4-isopropylthiophenyl)-2-n-octylaminopropane hydrochloride], the “peripheral vasodilator activity (compared with papaverine)” value in assay [2] is recorded as “at least equal to that of papaverine”. Also, the anti-aggregation effect entry in assay [3] is given as “strong anti-aggregation effect”. The IC50 with guinea pig ileum (setting [7]) and with guinea pig ileum (setting [8]) was under 1e-06 M throughout.

For `CC(C)Oc1ccc(C(OC(=O)C2CCCCC2)C(C)NCCCCc2ccccc2)cc1` (stereo not shown) [Compound 20], the “peripheral vasodilator activity (compared with papaverine)” value in assay [2] was “at least equal to that of papaverine”. Moreover, the IC50 in the assay with guinea pig ileum (setting [5]) and with guinea pig ileum (setting [6]) was under 1e-06 M each time. For the same molecule, the antihypertensive activity entry in assay [4] was “suitable antihypertensive activity”.

On to `CC(=O)OC(c1ccc(SC(C)C)cc1)C(C)NCCCCc1ccccc1` (stereo not shown) [Compound 27], for which the “peripheral vasodilator activity (compared with papaverine)” value in assay [2] is “at least equal to that of papaverine”. The IC50 with guinea pig ileum (setting [7]) and with guinea pig ileum (setting [8]) was under 1e-06 M each time. Moreover, in assay [4], the antihypertensive activity result is “suitable antihypertensive activity”.

Turning to `CCCCCCCCNC(C)C(OC(=O)CC(C)(C)C)c1ccc(SC(C)C)cc1.Cl` (stereo not shown) [Compound 30, 1-neopentylcarbonyloxy-1-(4-isopropylthiophenyl)-2-n-octylaminopropane (hydrochloride)], the anti-aggregation effect entry in assay [3] is “strong anti-aggregation effect”. The IC50 with guinea pig ileum (setting [6]) is under 1e-06 M. The antihypertensive activity result in assay [4] is recorded as “suitable antihypertensive activity”.

With `CCCCCCCCNC(C)C(O)c1ccc(OC)cc1` (stereo not shown) [Compound 74, 1-(4-methoxyphenyl)-2-n-octylamino-1-propanol], the “peripheral vasodilator activity (compared with papaverine)” value in assay [2] is listed as “at least equal to that of papaverine”. Also, the “effect on induced lipolysis” value in assay [1] is recorded as “active”.

Regarding `CCCCCCCCNC(C)C(O)c1ccc(C)cc1` (stereo not shown) [Compound 75], the “effect on induced lipolysis” value in assay [1] is “active”.

Consider `CCCCCCCCNC(C)C(O)c1ccccc1` (stereo not shown) [Compound 76], for which, in assay [1], the “effect on induced lipolysis” value was “active”.

Values taken from patent publication US4474977A, “Amino-alcohol derivatives” (Continental Pharma S.A., priority 1977, dated 1984).
